Experimental data: US8541440B2 (priority 2005, dated 2013)
Structures can show the parent of a compound that is named as a salt. Where two headings read alike, the source gives them in different places.

What was measured:
[1] = target: nicotinic receptors containing the α7 subunit (Rattus norvegicus, UniProt Q05941); assay: biochemical; format: binding
[2] = target: nicotinic receptors containing the α4β2 subunit (Rattus norvegicus, UniProt P09483+P12390); assay: Affinity for nicotinic receptors containing the α4β2 subunit, [3H]-cytisine binding to rat brain membranes; conditions: read-out: Percentage of inhibition of the specific binding of [3H]-cytisine at a dose of 1 μM, for the α4β2 subunit
Method: The compounds of the invention were also studied as regards their affinity for nicotinic receptors containing the α4β2 subunit according to the methods described by Anderson and Arneric, Eur. J. Pharmacol (1994), 253, 261, and by Hall et al., Brain Res. (1993), 600, 127.
Male Sprague Dawley rats weighing 150 to 200 g are decapitated and the entire brain is removed quickly, homogenized in 15 volumes of 0.32 M sucrose solution at 4° C. and then centrifuged at 1000×g for 10 min. The pellet is discarded and the supernatant is centrifuged at 20 000×g for 20 min at 4° C. The pellet is recovered and homogenized using a Polytron™ mill in 15 volumes of double-distilled water at 4° C., followed by centrifugation at 8000×g for 20 min. The pellet is discarded and the supernatant and the buffy coat are centrifuged at 40 000×g for 20 min, the pellet is recovered, resuspended in 15 ml of double-distilled water and centrifuged again at 40 000×g, before being stored at −80° C.
On the day of the experiment, the tissue is thawed slowly and suspended in 3 volumes of buffer. 150 μl of this membrane suspension are incubated at 4° C. for 120 min in the presence of 100 μl of 1 nM [^3H]-cytisine in a final volume of 500 μl of buffer, in the presence or absence of test compound. The reaction is stopped by filtration on Whatman GF/B™ filters pretreated with polyethyleneimine, the filters are rinsed with 2×5 ml of buffer at 4° C. and the radioactivity retained on the filter is measured by liquid scintigraphy. The non-specific binding is determined in the presence of 10 μM (−)-nicotine; the non-specific binding represents […] of the total binding recovered on the filter. For each concentration of test compound, the percentage of inhibition of the specific binding of [^3H]-cytisine is determined, at doses of 1 μM and 10 μM. For the most affine compounds of the invention, the IC50 value is calculated, which is the concentration of compound that inhibits the specific binding by 50%.

[3] = compound at 1 μM, 1 nM [3H]-cytisine, rat brain membranes

nicotinic receptors containing the α7 subunit, sequence (Q05941 23-502): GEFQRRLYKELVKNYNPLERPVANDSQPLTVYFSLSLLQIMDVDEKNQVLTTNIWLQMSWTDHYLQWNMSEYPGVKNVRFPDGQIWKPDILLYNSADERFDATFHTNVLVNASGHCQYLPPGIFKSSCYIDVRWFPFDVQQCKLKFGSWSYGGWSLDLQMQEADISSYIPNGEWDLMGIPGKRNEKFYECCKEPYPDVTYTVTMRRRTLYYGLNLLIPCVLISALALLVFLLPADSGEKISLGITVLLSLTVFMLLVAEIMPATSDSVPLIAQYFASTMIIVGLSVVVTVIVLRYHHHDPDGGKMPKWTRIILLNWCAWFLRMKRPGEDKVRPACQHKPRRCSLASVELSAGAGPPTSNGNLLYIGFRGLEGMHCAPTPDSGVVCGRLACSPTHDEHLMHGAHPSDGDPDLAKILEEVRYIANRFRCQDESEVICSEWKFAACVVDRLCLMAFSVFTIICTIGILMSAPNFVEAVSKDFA
nicotinic receptors containing the α4β2 subunit, sequence (P09483 31-630): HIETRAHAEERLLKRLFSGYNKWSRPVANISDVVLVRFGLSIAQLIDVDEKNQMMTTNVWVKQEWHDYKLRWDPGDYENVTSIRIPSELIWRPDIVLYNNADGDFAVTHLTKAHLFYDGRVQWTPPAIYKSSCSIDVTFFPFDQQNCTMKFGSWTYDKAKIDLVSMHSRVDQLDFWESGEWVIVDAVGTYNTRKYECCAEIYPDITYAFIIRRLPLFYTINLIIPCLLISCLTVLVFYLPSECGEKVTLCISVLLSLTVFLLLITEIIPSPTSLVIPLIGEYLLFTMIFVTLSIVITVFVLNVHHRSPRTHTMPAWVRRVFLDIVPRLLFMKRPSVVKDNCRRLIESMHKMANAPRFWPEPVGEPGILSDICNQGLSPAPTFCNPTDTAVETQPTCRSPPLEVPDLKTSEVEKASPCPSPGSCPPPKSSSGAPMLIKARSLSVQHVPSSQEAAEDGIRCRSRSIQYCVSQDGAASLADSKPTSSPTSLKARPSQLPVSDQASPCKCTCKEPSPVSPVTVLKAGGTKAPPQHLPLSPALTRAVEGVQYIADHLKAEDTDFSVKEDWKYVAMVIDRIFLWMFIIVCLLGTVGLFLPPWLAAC
nicotinic receptors containing the α4β2 subunit, sequence (P12390 25-500): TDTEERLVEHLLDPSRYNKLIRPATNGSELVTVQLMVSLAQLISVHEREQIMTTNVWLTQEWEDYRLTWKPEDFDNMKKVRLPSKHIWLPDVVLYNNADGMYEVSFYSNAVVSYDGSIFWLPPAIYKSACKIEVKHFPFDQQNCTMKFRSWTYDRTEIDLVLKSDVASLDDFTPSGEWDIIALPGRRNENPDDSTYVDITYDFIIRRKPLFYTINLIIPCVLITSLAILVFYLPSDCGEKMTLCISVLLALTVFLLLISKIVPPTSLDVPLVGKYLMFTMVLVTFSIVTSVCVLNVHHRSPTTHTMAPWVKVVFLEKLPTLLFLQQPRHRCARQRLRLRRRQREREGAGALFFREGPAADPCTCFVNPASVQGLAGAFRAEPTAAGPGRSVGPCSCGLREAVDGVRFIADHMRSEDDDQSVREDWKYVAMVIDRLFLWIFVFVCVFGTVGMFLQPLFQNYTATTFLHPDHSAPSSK

| Structure (SMILES) | melting point [°C] | also measured |
| --- | --- | --- |
| C1=CC2(c3ccc(-c4ncc[nH]4)nc3)CCN(C1)C2 (single isomer, unassigned) [Compound 14] | – | IC50 [1]: 99 nM; inhibition at 1 µM [2, 3]: 45% |
| C1=CC2(c3ccc(-c4cc[nH]n4)nc3)CCN(C1)C2 (stereo not drawn) (as salt: HBr) | 273 to 275 | – |
| Cn1cc(-c2ccc(C34CCCN(CC3)C4)cn2)cn1 (racemic) | 138 to 140 | – |
| C1=CC2(c3ccc(-n4ccnc4)nc3)CCN(C1)C2 (single isomer, unassigned) [Compound 11] | – | IC50 ([1]; read-out: IC50 α7): 83 nM; inhibition at 1 µM [2]: 36% |
| C1=CC2(c3ccc(-c4c[nH]cn4)nc3)CCN(C1)C2 (single isomer, unassigned) [Compound 9] | – | IC50 [1]: 300 nM; inhibition at 1 µM [2, 3]: 24% |
| CC(C)Cn1cc(-c2ccc(C34C=CCN(CC3)C4)cn2)cn1 (stereo not drawn) (as salt: HBr) | 104 to 106 | – |
| CCCn1cc(-c2ccc(C34C=CCN(CC3)C4)cn2)cn1 (stereo not drawn) (as salt: HBr) | 190 to 192 | – |
| C1=CC2(c3ccc(-c4ncc[nH]4)nc3)CCN(C1)C2 (single isomer, unassigned) (as salt: HBr) [Compound 14] | 234 to 236 | – |
| C1=CC2(c3ccc(-c4cscn4)nc3)CCN(C1)C2 (stereo not drawn) (as salt: HBr) | 272 to 274 | – |
